Results as given in US6815546B2, “Analogues of camptothecin, their use as medicaments and the pharmaceutical compositions containing them” (Societe de Recherches et d'Applications Scientifiques …, priority 1995, dated 2004).

Target: T1, DNA topoisomerase 1 of purified calf thymus (Bos taurus, UniProt F1MN93)
T1 construct: DNA topoisomerase 1 of purified calf thymus (Gibco-BRL, Paisley, United Kingdom); purchased Gibco-BRL, Paisley, United Kingdom; host or cells: calf thymus tissue
T1 sequence (F1MN93 1-767): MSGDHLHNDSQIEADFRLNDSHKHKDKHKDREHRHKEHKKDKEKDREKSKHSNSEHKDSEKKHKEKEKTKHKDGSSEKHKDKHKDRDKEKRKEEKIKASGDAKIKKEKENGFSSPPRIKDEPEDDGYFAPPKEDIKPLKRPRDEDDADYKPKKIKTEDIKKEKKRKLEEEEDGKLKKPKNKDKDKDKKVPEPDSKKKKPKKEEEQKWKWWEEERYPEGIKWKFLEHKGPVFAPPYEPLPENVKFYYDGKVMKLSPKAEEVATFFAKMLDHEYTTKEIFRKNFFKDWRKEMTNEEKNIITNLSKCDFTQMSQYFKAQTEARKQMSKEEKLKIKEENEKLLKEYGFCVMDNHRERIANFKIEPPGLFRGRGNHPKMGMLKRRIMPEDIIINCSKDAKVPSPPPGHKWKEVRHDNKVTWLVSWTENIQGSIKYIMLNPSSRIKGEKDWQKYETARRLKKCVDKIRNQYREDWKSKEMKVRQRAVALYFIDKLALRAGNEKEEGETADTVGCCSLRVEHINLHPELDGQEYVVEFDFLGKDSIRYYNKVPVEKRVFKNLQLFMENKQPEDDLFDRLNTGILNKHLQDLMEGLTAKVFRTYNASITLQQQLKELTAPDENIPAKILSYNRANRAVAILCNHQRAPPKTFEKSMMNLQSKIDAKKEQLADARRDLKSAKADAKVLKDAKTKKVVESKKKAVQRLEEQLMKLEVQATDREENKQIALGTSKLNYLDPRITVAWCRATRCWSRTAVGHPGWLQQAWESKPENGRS
Test: Relaxation activity test of DNA induced by topoisomerase 1
Format: biochemical
Details: supercoiled pUC19, 15 minutes at 37° C.
Method: 1. Relaxation Activity Test of DNA Induced by Topoisomerase 1
All the reactions are carried out in a 20 μl reaction buffer constituted by 50 mM of Tris-HCl (pH 7.5), 50 mM of KCl, 0.5 mM of dithiothreitol, 10 mM of MgCl2, 0.1 mM of ethyldiamine tetraacetic acid (EDTA), 30 μg/ml of bovine serum albumin and 300 ng of supercoiled pUC19 (Pharmacia Biotech, Orsay, France) with or without the compounds to be tested at defined concentrations. All the compounds to be tested are initially dissolved in dimethylsulphoxide (DMSO) at 50 mM, the other dilutions being carried out with distilled water. […] The reaction is initiated by the addition of a unit of DNA topoisomerase 1 of purified calf thymus (Gibco-BRL, Paisley, United Kingdom) and is carried out for 15 minutes at 37° C. The reactions are stopped by the addition of 3 μl of a mixture containing 1% dodecyl sodium sulphate at 1%, 20 mM of EDTA and 500 μg/ml of K proteinase (Boehringer Mannheim, Meylan, France). After an additional incubation period of 30 minutes at 37° C., 2 μl of a loading buffer containing 10 mM of Na2HPO4, 0.3% of bromophenol blue et 16% Ficoll are added to samples which are subjected to electrophoresis in agarose gels at 1.2% at 1 V/cm for 20 hours in a buffer containing 36 mM of Tris-HCl at pH 7.8, 30 mM of Na2HPO4, 1 mM of EDTA and 2 μg/ml of chloroquine. The gels are stained with 2 μg/ml of ethidium bromide, photographed under UV light at 312 nm with a camera and the fluorescent intensity is measured with a bioProfil camera (Vilber Lournat, Lyon, France) with a view to determining the percentage of relaxed DNA. Each experiment is carried out at least three times in duplicate.
In each experiment, the supercoiled plasmid DNA is incubated alone or with topoisomerase 1. The reaction is completed within 15 minutes. For each compound to be tested or control, the supercoiled plasmid DNA is incubated in the presence of 500 μM of compound to be tested with enzyme or without enzyme plus the compound to be tested, at concentrations of 10 μM, 100 μM, 200 μM and 500 μM.

Row | SMILES | PERCENTAGE OF RELAXED DNA (10 μM compound) [%] | PERCENTAGE OF RELAXED DNA (100 μM compound) [%] | PERCENTAGE OF RELAXED DNA (200 μM compound) [%] | PERCENTAGE OF RELAXED DNA (500 μM compound) [%]
1 | CCc1c2c(nc3ccccc13)-c1cc(C(O)(CC)CC(=O)O)c(CO)c(=O)n1C2 (centres unmarked) [Example 10, 3-[12-ethyl-8-(hydroxymethyl)-9-oxo-9,11-dihydroindolizino[1,2-b]quinolin-7-yl]-3-hydroxypentanoic acid] | 96.9 | 45.4 | 26.2 | 8.7
2 | CCC1(O)CC(=O)OCc2c1cc1n(c2=O)Cc2cc3ccccc3nc2-1 (centres unmarked) [Example 3, 5-ethyl-5-hydroxy-1,4,5,13-tetrahydro-3H,15H-oxepino [3′,4′:6,7]indolizino[1,2-b]quinoline-3,15-dione] | 79.9 | 59.9 | 55.0 | 45.7
3 | CCc1c2c(nc3ccccc13)-c1cc3c(c(=O)n1C2)COC(=O)CC3(O)CC (centres unmarked) [Example 9, 5,12-diethyl-5-hydroxy-1,4,5,13-tetrahydro-3H,15H-oxepino[3′,4′:6,7]indolizino[1,2-b]quinoline-3,15-dione] | 77.1 | 33.9 | 29.7 | 20.4
4 | CCC1(O)CC(=O)OCc2c1cc1n(c2=O)Cc2cc3cc4c(cc3nc2-1)OCCO4 (centres unmarked) [Example 11, 8-ethyl-8-hydroxy-2,3,8,9,12,15-hexahydro-10H,13H-[1,4]dioxino [2,3-g]oxepino[3′,4′:6,7]indolizino[1,2-b]quinoline-10,13-dione] | 65.0 | 50.3 | 39.8 | 31.0
5 | CCC(O)(CC(=O)O)c1cc2n(c(=O)c1CO)Cc1cc3ccccc3nc1-2 (centres unmarked) [Example 4, 3-hydroxy-3-[8-(hydroxymethyl)-9-oxo-9,11-dihydroindolizino [1,2-b]quinolin-7-yl]pentanoic acid] | 99.1 | 82.2 | 67.6 | 32.9
